From patent publication US7982049B2, “α-form or β-form crystal of acetanilide derivative” (Astellas Pharma Inc., priority 2001, dated 2011)
“Also recorded” adds a separate entry of the source. Counter-ions that a name gives are not always drawn.

Experiments:
[1] = Hygroscopicity test (VTI SGA-100); assay type: physicochemical; conditions: for hygroscopicity (in words): 5 to 95% of relative humidity; for relative humidity from which an increase in the weight is observed: measurement interval 5% of relative humidity; for stability of the crystal (in words): judged with the hygroscopicity result
Experimental: The hygroscopicity was measured using VTI SGA-100 under the following conditions. Temperature: 25° C., measurement range: from 5 to 95% of relative humidity, measurement interval: 5% of relative humidity.

Male kk mice = assay: Hypoglycemic test in kk mice (insulin resistance model: obesity and hyperglycemia); assay type: in vivo; conditions: oral, once daily for 7 days, blood glucose 15 to 18 hours after final administration, n=6
Experimental: Hypoglycemic Test in kk Mice (Insulin Resistance Model: Obesity and Hyperglycemia) Male kk mice (blood glucose level: 200 mg/dL or more) were measured for blood glucose level under feeding and then randomly classified into groups. The drug to be tested was compulsorily orally administered once daily for 7 days, and the blood glucose level after 15 to 18 hours from the final administration was compared with that before the administration (n=6). The blood was collected from a tail vein of the mouse using a glass capillary (previously treated with heparin), a protein was removed therefrom, and the amount of glucose in the supernatant (mg/dL) was measured by colorimetric determination by means of the glucose oxidase method. Further, a dose by which the blood glucose level was reduced by 30% as compared with that before the administration of the drug to be tested was expressed as an ED30 value.

[2] = Solubility in recrystallization solvent; assay type: physicochemical; conditions: 37% to 50% ethanol aqueous solution, as compared with the α-form crystal
[3] = 25° C., listed as (R)-2-(2-aminothiazol-1-4-yl)-4′-[2-[(2-hydroxy-2-phenylethyl)amino]ethyl]-aceta, dihydrochloride

Compound | hygroscopicity (in words) ([1]; 25° C., dihydrochloride) | hygroscopicity (in words) [1, 3] | hygroscopicity (in words) ([1]; 25° C., listed as (R)-2-(2-aminothiazol-4-yl)-4′-[2-[(2-hydroxy-2-phenylethyl)amino]ethyl]-acetani, dihydrochloride) | hygroscopicity (in words) ([1]; 25° C., listed as dihydrochloride, dihydrochloride) | moisture held ([1]; 25° C., at a relative humidity of 90%) | relative humidity from which an increase in the weight is observed ([1]; 25° C., dihydrochloride) | relative humidity from which an increase in the weight is observed [1, 3] | stability of the crystal (in words) ([1]; dihydrochloride) | stability of the crystal (in words) ([1]; listed as (R)-2-(2-aminothiazol-4-yl)-4′-[2-[(2-hydroxy-2-phenylethyl)amino]ethyl]-acetani, dihydrochloride) | stability of the crystal (in words) ([1]; listed as dihydrochloride, dihydrochloride) | ED30 value (dose by which the blood glucose level was reduced by 30% as compared with that before the administration) (Male kk mice) | hygroscopicity (in words) ([1]; 25° C.) | moisture-holding amount ([1]; 25° C., over the entire range of relative humidity from 5% to 95%) | stability of the crystal (in words) [1] | relative humidity from which an increase in the weight is observed ([1]; 25° C.) | moisture held ([1]; 25° C., relative humidity not stated for the value (measurement range 5 to 95%)) | solubility in a recrystallization solvent [2]
Nc1nc(CC(=O)Nc2ccc(CCNC[C@H](O)c3ccccc3)cc2)cs1 [dihydrochloride crystal, (R)-2-(2-aminothiazol-4-yl)-4′-[2-[(2-hydroxy-2-phenylethyl)amino]ethyl]-acetanilide dihydrochloride, reference compound] | strongly hygroscopic | strong hygroscopicity | strong hygroscopicity | strong hygroscopicity | about 14% | 80% | about 80% | unstable | unstable | unstable |  |  |  |  |  |  | 
Nc1nc(CC(=O)Nc2ccc(CCNC[C@H](O)c3ccccc3)cc2)cs1 [α-form crystal, (R)-2-(2-aminothiazol-4-yl)-4′-[2-[(2-hydroxy-2-phenylethyl)amino]ethyl]acetanilide] |  |  |  |  |  |  |  |  |  |  | not more than 3.5 mg/kg/day | not exhibiting hygroscopicity; also recorded: does not exhibit hygroscopicity; also recorded: did not exhibit hygroscopicity | not more than 0.2% | stable; also recorded: excellent in stability |  |  | 
Nc1nc(CC(=O)Nc2ccc(CCNC[C@H](O)c3ccccc3)cc2)cs1 [β-form crystal, (R)-2-(2-aminothiazol-4-yl)-4′-[2-[(2-hydroxy-2-phenylethyl)amino]ethyl]acetanilide] |  |  |  |  |  |  |  |  |  |  |  | weak hygroscopicity |  |  | about 20% | about 3% | high solubility
